Source: patent publication US7129036B1, “Reporter molecules and methods for assaying the lipidations status of a cell” (Tibotec BVBA, priority 1999, dated 2006)
Entries after “also recorded” stand apart in the source; their conditions may differ.

Legend:
Format in all cases: cell-based
[1] = molecular target: T1, farnesyl transferase (Homo sapiens, UniProt P49354+P49356); assay: Farnesyl transferase inhibition assay (EGFP-RasF membrane localization by fluorescence microscopy)
T1 construct: endogenous in cells; host or cells: K562 cells transduced with LNC-EGFP-RasF reporter
Method: The idea was to target EGFP to the plasma membrane by using a farnesylation signal sequence. […] The last 20 amino acids of c-Ha-Ras provides farnesylation and palmitoylation for targeting the Ras protein to the plasma membrane. We fused the C-terminal membrane targeting signal sequence of the human c-Ha-ras1 (J00277, NCBI) to the C-terminal end of EGFP (Clontech).
Twenty amino acids of the C-terminal end of c-Ha-ras 1 located in exon 4 were added to the C-terminus of the EGFP coding sequence by polymerase chain reaction (PCR) cloning.
The amphotropic packaging cell line PT67 (Clontech) was transfected (Pfx-2, Invitrogen) with pLNC-EGFP-(DEVD)-RasF and selected in 400 μg/ml G418. […] Gene transfer referred to as transduction in K562 and MT4 cells was easily observed by fluorescence microscopy.
(§1) K562 (MT4) cells were separated from PT67-pLNC-EGFP-(DEVD)-RasF and Non transduced K562 (MT4) cells were removed by selection in 400 μg/ml G418. The remaining fluorescent K562 (MT4) cells were directly cloned in 96 well plates by fluorescence activated cell sorting using an automatic cell deposit unit. […] Two weeks later, appropriate clones were selected by visual inspection using a fluorescence microscope and designated K562-LNC-EGFP-RasF or MT4-LNC-EGFP-(DEVD)-RasF. […]
In cells expressing EGFP without a farnesylation signal sequence, fluorescence is observed throughout the cell. […]

[2] = tested on: MT4-LNC-EGFP-RasF cells; assay: Control without DEVD cleavage site (EGFP-RasF membrane targeting by fluorescence microscopy); conditions: 4 h, FIG. 4B
Method: The amphotropic packaging cell line PT67 (Clontech) was transfected (Pfx-2, Invitrogen) with pLNC-EGFP-(DEVD)-RasF and selected in 400 μg/ml G418. In the surviving colonies, transcription occurs from (a) stably integrated plasmid(s) pLNC-EGFP-(DEVD)RasF. The resulting LNC-EGFP-(DEVD)-RasF mRNA is translated into EGFP-(DEVD)-RasF and the neomycin resistance protein and is also packaged into replication incompetent virions. Thus, the PT67-pLNC-EGFP-(DEVD)-RasF constitutively produces viral particles, able to transmit the EGFP-(DEVD)-RasF and the neomycin resistance gene at the same time. These amphotropic virions give the flexibility to rapidly develop novel cell lines stably expressing EGFP-(DEVD)-RasF proteins. […] Gene transfer referred to as transduction in K562 and MT4 cells was easily observed by fluorescence microscopy.
as §1

[3] = tested on: caspase 3; assay: Caspase 3 activity with fluorogenic Ac-DEVD-AMC substrate; conditions: MT4 cells, Ac(N-acetyl)-DEVD-AMC substrate, results not shown
[4] = tested on: caspase 3 and/or caspase 7; assay: Caspase assay (EGFP-DEVD-RasF membrane targeting by fluorescence microscopy); conditions: MT4-LNC-EGFP-DEVD-RasF cells, 10 μM, 4 h, FIG. 3B
Method: For the apoptosis construct, the same primer was used except that a sequence encoding DEVD (i.e. caspase 3 and 7 cleavage site) was included between EGFP and the Ras plasmamembrane targeting signal sequence (SEQ ID NO 4 and SEQ ID NO 5).
The amphotropic packaging cell line PT67 (Clontech) was transfected (Pfx-2, Invitrogen) with pLNC-EGFP-(DEVD)-RasF and selected in 400 μg/ml G418. In the surviving colonies, transcription occurs from (a) stably integrated plasmid(s) pLNC-EGFP-(DEVD)RasF. The resulting LNC-EGFP-(DEVD)-RasF mRNA is translated into EGFP-(DEVD)-RasF and the neomycin resistance protein and is also packaged into replication incompetent virions. […] Gene transfer referred to as transduction in K562 and MT4 cells was easily observed by fluorescence microscopy.
as §1

| EGFP membrane localization ([1]; K562 LNC-EGFP-RasF cells, 5 μM, FIG. 2) | EGFP compartmentalisation ([1]; K562 cells, high enough concentrations (>5 μM)) | Compound | translocation of EGFP ([2]; MT4-LNC-EGFP-RasF cells lacking DEVD site) | cell morphology ([2]; MT4-LNC-EGFP-RasF cells) | caspase 3 activity [3] | EGFP membrane targeting [4] |
| --- | --- | --- | --- | --- | --- | --- |
| disruption of membrane localization | almost completely disappears | CSCC[C@H](NC(=O)c1ccc(NC[C@@H](N)CS)cc1-c1ccccc1)C(=O)O [FTI-276] | – | – | – | – |
| – | – | CN[C@@H]1C[C@H]2O[C@@](C)([C@@H]1OC)n1c3ccccc3c3c4c(c5c6ccccc6n2c5c31)C(=O)NC4 [staurosporin] | no prominent translocation of EGFP occurs; also recorded: did not result in marked translocation of EGFP | affects the cells morphology within hours; also recorded: altered cell morphology | induced caspase 3 activity | partially disappears; also recorded: reduced EGFP membrane targeting |
